Assay [1] concerns female subjects experiencing Vasomotor Symptoms (VMS). The experiment in a line: Phase Ib study: frequency of vasomotor symptoms (VMS), moderate and severe VMS counted, 14 days once nightly dosing. Type of assay: in vivo, human. Details: Mean Observed Value in VMS frequency: unit not given here. The source says: (§1) Study Design: This was a Phase Ib, randomized, double blind, placebo controlled study. The study design is illustrated in FIG. 1. Following the initial Screening visit, eligible subjects was given an actigraphy event monitor (watch) to record episodes of flashing as Vasomotor symptoms (VMS) events during a period of 2 weeks during Screening, in order to confirm VMS eligibility criteria (≥7 VMS/day on average during 2 weeks). Subjects may be required to return to the site during the Screening period to read or exchange the actigraphy event monitor. Subjects deemed eligible following review of VMS data were invited to attend the Clinical research unit (CRU) for one residential period of 16 days duration, including 14 days of Investigational Medicinal Product (IMP) administration. Subjects were admitted to the CRU 1 day prior to dosing (Day-1). No medication was administered on Day-1. On Day 1, subjects who meet the study eligibility criteria were randomized to receive one dose level of either Compound A (6 subjects) or a matching placebo (2 subjects) in a double-blind manner. Randomized treatment was administered once nightly, starting on Day 1, for a total duration of 14 days.
The anticipated dose levels of Compound A to be administered are 50 mg for Cohort 1, 20 mg for Cohort 2 and 5 mg for Cohort 3. Progression to the next dose level and selection of the dose to be administered in Cohort 2 and Cohort 3 is based on emerging safety and tolerability data and available core body temperature data from the preceding dose cohort. If the dose escalation stopping criteria are met, then the dose for the subsequent cohort is reduced. […] The three cohorts are dosed sequentially with a fourth additional cohort being dosed, if necessary, to investigate other dose levels.
Five (5) mg of Compound A was administered to the female subjects experiencing Vasomotor Symptoms (VMS), and as the above-mentioned assessments, a Frequency of VMS and a Core body temperature assessment were examined.
Here a moderate VMS and a severe VMS were counted as a VMS frequency.

Assay [2] shares this test system. The experiment in a line: Phase Ib study: core body temperature assessment, change from baseline within 24 hours post-dose. The following applies: 5 mg administered group, within 24 hours post-dose on Visit Day 1 or 7; like placebo, in comparison with 20 mg and 50 mg groups. Type of assay: in vivo, human.
From the text: as §1
The anticipated dose levels of Compound A to be administered are 50 mg for Cohort 1, 20 mg for Cohort 2 and 5 mg for Cohort 3. […]

Structures are written as SMILES.

In the case of `O=C(O)c1ccc(S(=O)(=O)N(Cc2ccc(OC(F)(F)F)cc2)c2ncc3ccccc3c2C2CC2)cc1` [Compound A, 4-({(4-cyclopropylisoquinolin-3-yl)[4-(trifluoromethoxy)benzyl]amino}sulfonyl)benzoic acid], the “Effect on frequency of VMS versus placebo (FIG. 2)” value in assay [1] (5 mg once nightly, 14 days of treatment) is on record as “reduced the frequency of VMS significantly”. The “Onset of the reduction effect of VMS frequency” value in assay [1] (5 mg, shown during the first night of active drug therapy or later, within a few days, compared to estrogen or Paroxetine) is reported as “immediate effect”. The “Mean Observed Value in VMS frequency” value in assay [1] (Baseline, 5 mg Compound A group, moderate and severe VMS counted) is reported as 14.5; in assay [1] (Day 1, 5 mg once nightly), 9.7; in assay [1] (Day 2, 5 mg once nightly), 7.2; in assay [1] (Day 3, 5 mg once nightly), 6.3; in assay [1] (Day 4, 5 mg once nightly) it was 5.3; in assay [1] (Day 5, 5 mg once nightly) it was 8.0. Besides, the “Mean Observed Value in VMS frequency” value in assay [1] (Day 6, 5 mg once nightly) is 6.3; in assay [1] (Day 7, 5 mg once nightly) it was 4.7; in assay [1] (Day 8, 5 mg once nightly) it was 3.7; in assay [1] (Day 9, 5 mg once nightly), 4.5; in assay [1] (Day 10, 5 mg once nightly), 3.2; in assay [1] (Day 11, 5 mg once nightly) it was 3.7. The “Mean Observed Value in VMS frequency” value in assay [1] (Day 12, 5 mg once nightly) came to 3.2; in assay [1] (Day 13, 5 mg once nightly) it was 3.2; in assay [1] (Day 14, 5 mg once nightly), 4.8. The “Change from baseline in core body temperature” value in assay [2] is “no significant reduced the core body temperature”.

The values are drawn from patent US11471452B2, “Compositions and methods for treating or preventing vasomotor symptoms” (Mitsubishi Tanabe Pharma Corporation, priority 2017, dated 2022).
